# From patent publication US6235516A, “Biocatalysts with amine acylase activity” (Novartis AG, priority 1996, dated 2001)
# Where “and” joins values, the source holds several entries; their conditions need not be identical. Identical values can stand only once.
# Experiments:
# [1] = system: whole cells of Rhodococcus globerulus K1/1; assay: Amide hydrolysis with whole cells of Rhodococcus globerulus K1/1; assay type: cell-based; details: for Selectivity E: enantioselectivity of the hydrolysis; for e.e. (S)-Amine: formed amine, analysed as acetamide; for e.e. (R)-Amide: unconverted amide, chiral HPLC
# From the text: (§1) When the conversion reaches about 50% (checked by HPLC) the solutions are acidified to pH 2 by adding 1 N HCl and extracted three times with dichloromethane to obtain the unconverted amides. The aqueous layers are neutralized with 1 N NaOH solution and extracted again three times with dichloromethane to recover the formed amines. Both organic phases are dried with MgSO4, filtered and the solvent is distilled off. The amides are used directly for optical purity determinations (HPLC), whereas the obtained amines are converted to the acetamides by adding 100 μl triethylamine and 100 μl acetic anhydride to each sample and then analyzed for the optical purity by "chiral" HPLC.
# To 50 ml of a 10 mM solution in phosphate buffer pH 7.0 of each racemic amide listed in table 16, whole cells of Rhodococcus globerulus K1/1 (each obtained from 50 ml shake flask medium (see example 21), OD660 =2.0) is added. The deacetylation is performed at 30° C. under continuous shaking (200 rpm). The reaction is monitored by HPLC and after the conversion is about 50% the reaction mixtures are worked up in the same manner as described in example 22.
# [2] = biological target: T1, acylase from Rhodococcus equi Ac6 (Rhodococcus (subgen. Prescottella) equi, UniProt A0A3S5Y3Z2); assay: Enzymatic hydrolysis of racemic amides with partially purified acylase from Rhodococcus equi Ac6; assay type: biochemical; design: e.e. (R)-Amide: unit not given here
# T1 construct: N-terminus […]
# Procedure: (§2) To 10 ml of a 20 mM solution of each of the racemic amides shown below 1 in 0.1 M phosphate buffer pH 7.0, 5 ml (1.3 units) of the enzyme is added and the solutions are shaken at 100 rpm and 30° C. [drawing 10] [drawing 11]
# as §1
# The experiments are carried out in the same manner as described in example 22.
# [3] = system: acylase from Arthrobacter aurescens Ac5R; assay: Enzymatic hydrolysis of racemic amides with highly purified acylase from Arthrobacter aurescens Ac5R; assay type: biochemical; details: for Selectivity E: enantioselectivity of the hydrolysis; for e.e. (R)-Amine: formed amine, analysed as acetamide by chiral HPLC; for e.e. (S)-Amide: unconverted amide, chiral HPLC
# Procedure: as §2, §1
# AcR5b-acylase [4] = assay: Stability of the AcR5b-acylase during freezing, with and without cryoprotective agents; assay type: physicochemical, Arthrobacter aurescens AcR5b
# R. equi Ac6 = assay: Growth and induction of the acylase of Rhodococcus equi Ac6 (shake flask culture); assay type: cell-based
# Procedure: R. equi Ac6 is grown in basic medium containing 3 g/l (S)-N-acetyl-1-phenylethylamine or 3 g/l (R)-N-acetyl-1-phenylethylamine or no N-acetyl-1-phenylethylamine for 91 h by the shake flask culture technique described in example 1. By applying the methods given in example 1 the crude extracts are prepared and subjected to measurement of the protein concentration and the acylase activity using (S)-N-acetyl-1-phenylethylamine and (R)-N-acetyl-1-phenylethylamine as the substrates.
# R. equi Ac6 cells are inoculated into three 1 l Erlenmeyer flask containing each 100 ml of basic medium with 10 g/l yeast extract and 10 g/l meat extract as additional nutrients. The cells are grown (shake flask technique see example 1) until the OD660 reaches about 2. Then the culture is split into eight portions of 25 ml and (S)-N-acetyl-1-phenylethylamine is added to the shake flasks in final concentrations of 0-7 g/l in steps of 1 g/l. The cells are further incubated for 25 h. Then the protein concentrations and acylase activities of the crude extracts are measured as described in example 1.
# In another experiment (S)-N-acetyl-1-phenylethylamine is added to the culture medium in final concentrations of 1 to 5 g/l in steps of 1 g/l directly after inoculation to one series of shake flasks (see example 1) and after 72 h of growth to another. Basic medium without peptone supplemented with 20 g/l meat extract and 20 g/l yeast extract is used. 96 h after inoculation the cells are harvested by centrifugation and the protein concentration and acylase activity in the crude extract are measured (see example 1).
# CC(=O)N[C@@H](C)c1ccccc1 = assay: Dependence of the reaction velocity of the Ac6-acylase on substrate concentration (Km); assay type: biochemical, Rhodococcus equi Ac6; details: other: purified Ac6-acylase, pH 7, 30° C., 10 min, nonlinear regression
# Procedure: Activity assay under the standard conditions given in example 1 with an incubation time of 10 min. are performed using different initial concentrations of (S)-N-acetyl-1-phenylethylamine and the final Ac6-acylase preparation obtained in example 4c, which has been diluted 5 fold with 69 mM potassium phosphate buffer, pH 7, as the enzyme source. The Michaelis constant Km is calculated from the substrate concentrations and the corresponding reaction velocities by numerical nonlinear regression with the program "SigmaPlot for Windows" (Jandel Scientific GmbH, Schimmelbusch, Germany) to the formula: v=Vm×S/(S+Km). v: reaction velocity (U/ml=mM/min.), Vm : maximum reaction velocity (U/ml), S=(S)-N-acetyl-1-phenylethylamine concentration (mM).
# AcR5b-acylase [5] = assay: Dependence of the reaction velocity of the AcR5b-acylase on substrate concentration (Km, Vmax); assay type: biochemical, Arthrobacter aurescens AcR5b
# Procedure: Activity assays are performed under the standard conditions given in example 11 with an incubation time of 30 min. using different initial concentrations of (R)-N-acetyl-1-phenylethylamine and racemic N-acetyl-(m-cyano-phenyl)ethylamine. The final AcR5b-acylase preparation obtained in example 4d, which has been diluted 20 fold with 69 mM potassium phosphate buffer, pH 7, serve as the enzyme source. The Michaelis constants (Km) and the maximum reaction velocities are calculated as described in example 9.
# [6] = AcR5b-acylase frozen 2.5 h at -20° C. with the cryoprotective agent of the label (label AcR5b-acylase = none)
# [7] = AcR5b-acylase frozen 2.5 h at -80° C. with the cryoprotective agent of the label (label AcR5b-acylase = none)
# [8] = AcR5b-acylase frozen 9 days at -20° C. with the cryoprotective agent of the label (label AcR5b-acylase = none)
# [9] = AcR5b-acylase frozen 9 days at -80° C. with the cryoprotective agent of the label (label AcR5b-acylase = none)
# [10] = basic medium + 3 g/l of the amide as inducer, 91 h
# T1 sequence (A0A3S5Y3Z2 1-487): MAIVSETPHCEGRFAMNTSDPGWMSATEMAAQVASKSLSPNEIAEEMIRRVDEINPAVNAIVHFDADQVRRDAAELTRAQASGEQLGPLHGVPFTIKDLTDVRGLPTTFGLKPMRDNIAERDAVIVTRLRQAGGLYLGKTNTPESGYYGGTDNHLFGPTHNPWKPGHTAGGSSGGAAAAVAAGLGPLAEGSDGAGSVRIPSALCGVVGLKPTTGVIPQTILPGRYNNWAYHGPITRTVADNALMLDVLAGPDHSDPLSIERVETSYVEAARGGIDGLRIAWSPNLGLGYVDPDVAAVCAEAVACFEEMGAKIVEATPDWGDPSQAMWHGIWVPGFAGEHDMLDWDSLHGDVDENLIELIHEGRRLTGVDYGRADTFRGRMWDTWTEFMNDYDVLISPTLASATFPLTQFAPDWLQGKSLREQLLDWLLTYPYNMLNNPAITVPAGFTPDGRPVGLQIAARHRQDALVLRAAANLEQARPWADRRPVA
Compound,Selectivity E [1],e.e. (S)-Amine [1],e.e. (R)-Amide [1],Relative activity (%) (AcR5b-acylase [4]; [6]),Relative activity (%) (AcR5b-acylase [4]; [7]),Relative activity (%) (AcR5b-acylase [4]; [8]),Relative activity (%) (AcR5b-acylase [4]; [9]),other results
CCC(NC(C)=O)c1ccccc1 (racemic) [Substrate 4a],140,90.0,> 99.9,,,,,"Selectivity E ([2]; enantioselectivity of the hydrolysis): > 500; e.e. (S)-Amine ([2]; formed amine, analysed as acetamide): 98.5; e.e. (R)-Amide ([2]; unconverted amide, chiral HPLC): > 99.9; Selectivity E [3]: > 500; e.e. (R)-Amine [3]: > 99.9; e.e. (S)-Amide [3]: 87.4"
"OCC(O)CO [50% Glycerol, Glycerol]",,,,77,100,98,90,
CCC(Cc1ccccc1)NC(C)=O (racemic) [Substrate 12a],87,93.0 and 87.9,90.7 and > 99.9,,,,,
"OCC(O)CO [5% Glycerol, Glycerol]",,,,100,100,89,97,
CC(=O)N[C@@H](C)c1ccccc1 [(S)-N-acetyl-1-phenylethylamine],,,,,,,,"maximal acylase production (R. equi Ac6; 2 g/l inducer added 72 h after inoculation, harvest 96 h): 20 U/lculture medium; induction of the acylase expression of strain Ac6 (R. equi Ac6; 3 g/l in basic medium): has to be present in the growth medium to induce the acylase expression; maximal acylase yield (R. equi Ac6; 3 g/l inducer added directly after inoculation, harvest 96 h): 60 U/lculture medium; Enzyme yield with (R)-amide as the acylase substrate (R. equi Ac6; [10]): < 0.4 U/lculture broth; Enzyme yield with (S)-amide as the acylase substrate (R. equi Ac6; [10]): 38.2 U/lculture broth; OD660 at cell harvest (R. equi Ac6; basic medium + 3 g/l of the amide, 91 h, basic medium alone 0.46): 1.52; effect on growth of Rhodococcus equi Ac6 (R. equi Ac6; in the growth medium): inhibits the growth of the cells"
Ac6-acylase (Rhodococcus equi 103S),,,,,,,,Km (CC(=O)N[C@@H](C)c1ccccc1): 0.6 mM
C=CCC(Cc1ccccc1)NC(C)=O (racemic) [Substrate 10a],70,90.0,95.7,,,,,
"N.N.O=S(=O)(O)O [10% (NH4)2 SO4, (NH4)2 SO4]",,,,100,92,81,83,
"CC(=O)NC(C)c1cccc(C#N)c1 (racemic) [racemic (m-cyano) derivative, N-acetyl-(m-cyano-phenyl)ethylamine]",,,,,,,,"Km (AcR5b-acylase [5]; 30 min incubation, pH 7): 10.4 mM; relative maximum reaction velocity (AcR5b-acylase [5]; (R)-N-acetyl-1-phenylethylamine = 100): 23%"
CC(=O)NC1CCOc2ccccc21 (racemic) [Substrate 6a],290,93.5,> 99.9,,,,,Selectivity E [3]: 32; e.e. (R)-Amine [3]: 90.5; e.e. (S)-Amide [3]: 46.6
